Residue numbers refer to the chain shown, from its start.
Key:
[1] = biological target: T1, human α1aAR SNP V311I (Homo sapiens, UniProt P35348, V311I); test: Competition binding vs [125I]HEAT, SNP V311I; conditions: high expressing clone
T1 construct: expressed in transfected cells
T1 sequence (P35348 1-466 V311I): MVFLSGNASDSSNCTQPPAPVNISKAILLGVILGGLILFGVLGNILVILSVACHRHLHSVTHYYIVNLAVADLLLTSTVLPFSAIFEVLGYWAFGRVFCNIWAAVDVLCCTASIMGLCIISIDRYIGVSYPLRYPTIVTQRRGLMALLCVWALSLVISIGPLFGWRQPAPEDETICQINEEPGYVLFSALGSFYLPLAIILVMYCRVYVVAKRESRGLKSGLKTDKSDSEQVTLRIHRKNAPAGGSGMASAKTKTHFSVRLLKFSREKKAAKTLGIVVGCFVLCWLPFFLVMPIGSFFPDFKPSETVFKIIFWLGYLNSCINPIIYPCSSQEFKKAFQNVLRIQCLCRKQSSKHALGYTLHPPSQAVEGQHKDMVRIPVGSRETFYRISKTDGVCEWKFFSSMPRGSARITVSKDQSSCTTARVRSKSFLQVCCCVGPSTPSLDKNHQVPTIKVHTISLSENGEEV

[2] = biological target: T1, human α1aAR SNP V311I; test: NE-stimulated inositol phosphate (IP) production, SNP V311I; type: cell-based
[3] = biological target: T2, human α1aAR SNP G247R (Homo sapiens, UniProt P35348, G247R); test: NE-stimulated inositol phosphate (IP) production, SNP G247R; type: cell-based; conditions: low-expression stable clones
T2 construct: expressed in transfected cells
T2 sequence (P35348 1-466 G247R): T1 sequence (P35348 1-466 V311I) with G247R, I311V

[4] = biological target: T3, human α1aAR SNP I200S (Homo sapiens, UniProt P35348, I200S); test: Competition binding vs [125I]HEAT, SNP I200S; conditions: high expressing clone
T3 construct: expressed in transfected cells; host or cells: rat-1 fibroblasts (membranes)
T3 sequence (P35348 1-466 I200S): T1 sequence (P35348 1-466 V311I) with I200S, I311V

## COc1ccccc1N1CCN(CCCNc2c(C)c(=O)n(C)c(=O)n2C)CC1 [5-methylurapidil]
[1]
  higher affinity vs WT: 3 fold

## NC[C@H](O)c1ccc(O)c(O)c1 [NE, (−)-norepinephrine]
[1]
  Ki increase vs WT (decrease in receptor affinity): ~3 fold
[2]; high-expression stable clone
  decrease in potency of NE-stimulated IP formation compared with WT: 2.4 fold
[2]; low-expression stable clone
  EC50 for NE vs WT: significantly increased EC50
[2]; transiently transfected rat-1 fibroblasts
  EC50 for NE vs WT: significantly increased EC50
[3]
  maximum IP production (maximum activity) vs WT: significantly higher maximum activity

## Cc1ccc(N(CC2=NCCN2)c2cccc(O)c2)cc1 [phentolamine]
[4]
  Ki increase vs WT (decreased binding affinity): ~3 fold

## CNC[C@H](O)c1cccc(O)c1 [phenylephrine]
[1]
  Ki increase vs WT (decrease in receptor affinity): ~3 fold

— patent US20040265846A1, “Adrenergic receptors” (DUKE UNIVERSITY, priority 2002, published 2004)
